According to ChEMBL document CHEMBL3797052 (Eur J Med Chem, 2016):
pIC50: −log10 of the molar value.

System: not listed separately
Assay: Antiproliferative activity against human SF268 cells assessed as cell growth at 10^-6 M after 48 hrs by sulforhodamine B assay
Format: functional
Details: SF-268, 48 h, read-out: Activity

Structure (SMILES)	growth at 1 µM [%]
CNC(=O)c1cc(Oc2ccc3nc(NC(=O)Nc4cc(C(F)(F)F)cc(C(F)(F)F)c4)sc3c2)ccn1	65

System: MDA-MB-231
Assay: Antiproliferative activity against human MDA-MB-231 cells assessed as cell growth at 10^-8 M after 48 hrs by sulforhodamine B assay
Format: functional
Details: MDA-MB-231, 48 h, read-out: Activity

Structure (SMILES)	growth at 0.01 µM [%]
CNC(=O)c1cc(Oc2ccc3nc(NC(=O)Nc4cc(C(F)(F)F)cc(C(F)(F)F)c4)sc3c2)ccn1	103

System: SK-MEL-2
Assay: Antiproliferative activity against human SK-MEL-2 cells assessed as cell growth at 10^-8 M after 48 hrs by sulforhodamine B assay
Format: functional
Details: SK-MEL-2, 48 h, read-out: Activity

Structure (SMILES)	growth at 0.01 µM [%]
CNC(=O)c1cc(Oc2ccc3nc(NC(=O)Nc4cc(C(F)(F)F)cc(C(F)(F)F)c4)sc3c2)ccn1	90

System: not listed separately
Assay: Antiproliferative activity against human NCI-ADR-RES cells assessed as cell growth at 10^-7 M after 48 hrs by sulforhodamine B assay
Format: functional
Details: read-out: Activity

Structure (SMILES)	growth at 0.1 µM [%]
CNC(=O)c1cc(Oc2ccc3nc(NC(=O)Nc4cc(C(F)(F)F)cc(C(F)(F)F)c4)sc3c2)ccn1	98

System: not listed separately
Assay: Antiproliferative activity against human HCT15 cells assessed as growth inhibition after 48 hrs by sulforhodamine B assay
Format: functional
Details: HCT-15, 48 h

Structure (SMILES)	GI50 [µM]	LC50 [µM]	TGI [µM]
CNC(=O)c1cc(Oc2ccc3nc(NC(=O)Nc4cc(C(F)(F)F)cc(C(F)(F)F)c4)sc3c2)ccn1	1.5	7.32	3.31

System: not listed separately
Assay: Antiproliferative activity against human UACC62 cells assessed as cell growth at 10^-4 M after 48 hrs by sulforhodamine B assay
Format: functional
Details: UACC-62, 48 h, read-out: Activity

Structure (SMILES)	growth at 100 µM [%]
CNC(=O)c1cc(Oc2ccc3nc(NC(=O)Nc4cc(C(F)(F)F)cc(C(F)(F)F)c4)sc3c2)ccn1	-73

System: not listed separately
Assay: Antiproliferative activity against human OVCAR5 cells assessed as cell growth at 10^-8 M after 48 hrs by sulforhodamine B assay
Format: functional
Details: OVCAR-5, 48 h, read-out: Activity

Structure (SMILES)	growth at 0.01 µM [%]
CNC(=O)c1cc(Oc2ccc3nc(NC(=O)Nc4cc(C(F)(F)F)cc(C(F)(F)F)c4)sc3c2)ccn1	94

System: not listed separately
Assay: Antiproliferative activity against human HL-60(TB) cells assessed as cell growth at 10^-7 M after 48 hrs by sulforhodamine B assay
Format: functional
Details: HL-60, 48 h, read-out: Activity

Structure (SMILES)	growth at 0.1 µM [%]
CNC(=O)c1cc(Oc2ccc3nc(NC(=O)Nc4cc(C(F)(F)F)cc(C(F)(F)F)c4)sc3c2)ccn1	31

System: HT-29
Assay: Antiproliferative activity against human HT-29 cells assessed as cell growth at 10^-7 M after 48 hrs by sulforhodamine B assay
Format: functional
Details: HT-29, 48 h, read-out: Activity

Structure (SMILES)	growth at 0.1 µM [%]
CNC(=O)c1cc(Oc2ccc3nc(NC(=O)Nc4cc(C(F)(F)F)cc(C(F)(F)F)c4)sc3c2)ccn1	97

System: MDA-MB-231
Assay: Antiproliferative activity against human MDA-MB-231 cells assessed as cell growth at 10^-6 M after 48 hrs by sulforhodamine B assay
Format: functional
Details: MDA-MB-231, 48 h, read-out: Activity

Structure (SMILES)	growth at 1 µM [%]
CNC(=O)c1cc(Oc2ccc3nc(NC(=O)Nc4cc(C(F)(F)F)cc(C(F)(F)F)c4)sc3c2)ccn1	46

System: Malme-3M
Assay: Antiproliferative activity against human MALME-3M cells assessed as cell growth at 10^-7 M after 48 hrs by sulforhodamine B assay
Format: functional
Details: read-out: Activity

Structure (SMILES)	growth at 0.1 µM [%]
CNC(=O)c1cc(Oc2ccc3nc(NC(=O)Nc4cc(C(F)(F)F)cc(C(F)(F)F)c4)sc3c2)ccn1	90

System: not listed separately
Assay: Antiproliferative activity against human HOP62 cells assessed as cell growth at 10^-8 M after 48 hrs by sulforhodamine B assay
Format: functional
Details: HOP-62, 48 h, read-out: Activity

Structure (SMILES)	growth at 0.01 µM [%]
CNC(=O)c1cc(Oc2ccc3nc(NC(=O)Nc4cc(C(F)(F)F)cc(C(F)(F)F)c4)sc3c2)ccn1	85

System: NCI-H322M
Assay: Antiproliferative activity against human NCI-H322M cells assessed as growth inhibition after 48 hrs by sulforhodamine B assay
Format: functional
Details: not given

Structure (SMILES)	GI50 [µM]	TGI [µM]
CNC(=O)c1cc(Oc2ccc3nc(NC(=O)Nc4cc(C(F)(F)F)cc(C(F)(F)F)c4)sc3c2)ccn1	1.49	3.65

Target: Voltage-gated inwardly rectifying potassium channel KCNH2 (Homo sapiens, UniProt Q12809)
Assay: Inhibition of human ERG assessed as reduction in channel current by automated patch-clamp electrophysiology assay
Details: not given

Sequence of Voltage-gated inwardly rectifying potassium channel KCNH2 (Q12809 whole entry): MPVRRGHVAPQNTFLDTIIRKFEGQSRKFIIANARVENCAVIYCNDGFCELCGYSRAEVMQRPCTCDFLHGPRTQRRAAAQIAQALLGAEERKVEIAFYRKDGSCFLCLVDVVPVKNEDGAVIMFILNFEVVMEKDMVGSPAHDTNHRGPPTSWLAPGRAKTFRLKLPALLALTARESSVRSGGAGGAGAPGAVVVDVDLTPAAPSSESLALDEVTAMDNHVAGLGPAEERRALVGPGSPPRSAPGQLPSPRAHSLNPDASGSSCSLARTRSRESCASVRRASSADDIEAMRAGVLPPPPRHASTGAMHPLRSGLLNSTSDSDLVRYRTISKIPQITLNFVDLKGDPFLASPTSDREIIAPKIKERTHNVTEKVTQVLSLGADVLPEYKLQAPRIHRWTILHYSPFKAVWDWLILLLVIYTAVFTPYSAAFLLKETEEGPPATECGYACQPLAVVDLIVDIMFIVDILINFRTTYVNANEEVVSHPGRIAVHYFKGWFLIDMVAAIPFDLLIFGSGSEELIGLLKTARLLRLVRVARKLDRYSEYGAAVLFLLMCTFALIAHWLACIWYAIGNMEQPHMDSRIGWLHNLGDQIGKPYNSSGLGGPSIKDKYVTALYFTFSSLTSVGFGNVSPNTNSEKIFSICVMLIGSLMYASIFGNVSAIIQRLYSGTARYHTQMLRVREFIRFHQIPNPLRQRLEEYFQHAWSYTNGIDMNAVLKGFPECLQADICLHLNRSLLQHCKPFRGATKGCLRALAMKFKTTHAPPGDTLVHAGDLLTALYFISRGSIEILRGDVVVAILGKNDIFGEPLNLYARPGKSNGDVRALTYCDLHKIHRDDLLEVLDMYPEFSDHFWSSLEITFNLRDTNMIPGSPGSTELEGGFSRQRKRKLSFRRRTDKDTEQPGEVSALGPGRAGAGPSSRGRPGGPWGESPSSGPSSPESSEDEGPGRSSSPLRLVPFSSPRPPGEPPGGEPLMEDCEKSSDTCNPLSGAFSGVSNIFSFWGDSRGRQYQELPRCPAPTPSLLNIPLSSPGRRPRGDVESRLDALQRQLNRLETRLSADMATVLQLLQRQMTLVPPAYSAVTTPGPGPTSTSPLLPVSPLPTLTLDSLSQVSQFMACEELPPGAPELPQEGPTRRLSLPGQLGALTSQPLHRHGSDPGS

Structure (SMILES)	pIC50
CNC(=O)c1cc(Oc2ccc3nc(NC(=O)Nc4cc(C(F)(F)F)cc(C(F)(F)F)c4)sc3c2)ccn1	< 4.00

System: not listed separately
Assay: Antiproliferative activity against human RPMI8226 cells assessed as cell growth at 10^-4 M after 48 hrs by sulforhodamine B assay
Format: functional
Details: RPMI-8226, 48 h, read-out: Activity

Structure (SMILES)	growth at 100 µM [%]
CNC(=O)c1cc(Oc2ccc3nc(NC(=O)Nc4cc(C(F)(F)F)cc(C(F)(F)F)c4)sc3c2)ccn1	-52

System: A549
Assay: Antiproliferative activity against human A549/ATCC cells assessed as cell growth at 10^-6 M after 48 hrs by sulforhodamine B assay
Format: functional
Details: A549, 48 h, read-out: Activity

Structure (SMILES)	growth at 1 µM [%]
CNC(=O)c1cc(Oc2ccc3nc(NC(=O)Nc4cc(C(F)(F)F)cc(C(F)(F)F)c4)sc3c2)ccn1	68

System: not listed separately
Assay: Antiproliferative activity against human RXF393 cells assessed as cell growth at 10^-7 M after 48 hrs by sulforhodamine B assay
Format: functional
Details: RXF 393, 48 h, read-out: Activity

Structure (SMILES)	growth at 0.1 µM [%]
CNC(=O)c1cc(Oc2ccc3nc(NC(=O)Nc4cc(C(F)(F)F)cc(C(F)(F)F)c4)sc3c2)ccn1	91

System: MCF7
Assay: Antiproliferative activity against human MCF7 cells assessed as cell growth at 10^-8 M after 48 hrs by sulforhodamine B assay
Format: functional
Details: MCF7, 48 h, read-out: Activity

Structure (SMILES)	growth at 0.01 µM [%]
CNC(=O)c1cc(Oc2ccc3nc(NC(=O)Nc4cc(C(F)(F)F)cc(C(F)(F)F)c4)sc3c2)ccn1	85

System: not listed separately
Assay: Antiproliferative activity against human BT549 cells assessed as cell growth at 10^-4 M after 48 hrs by sulforhodamine B assay
Format: functional
Details: BT-549, 48 h, read-out: Activity

Structure (SMILES)	growth at 100 µM [%]
CNC(=O)c1cc(Oc2ccc3nc(NC(=O)Nc4cc(C(F)(F)F)cc(C(F)(F)F)c4)sc3c2)ccn1	-63
